12 compounds from patent US6114334A, “Piperazine derivatives as therapeutic agents” (Knoll Aktiengesellschaft, priority 1995, dated 2000) can be followed below.

One assay addresses T1, α2D-adrenoceptors (Rattus norvegicus, UniProt P22909).
T1 sequence (P22909 1-465): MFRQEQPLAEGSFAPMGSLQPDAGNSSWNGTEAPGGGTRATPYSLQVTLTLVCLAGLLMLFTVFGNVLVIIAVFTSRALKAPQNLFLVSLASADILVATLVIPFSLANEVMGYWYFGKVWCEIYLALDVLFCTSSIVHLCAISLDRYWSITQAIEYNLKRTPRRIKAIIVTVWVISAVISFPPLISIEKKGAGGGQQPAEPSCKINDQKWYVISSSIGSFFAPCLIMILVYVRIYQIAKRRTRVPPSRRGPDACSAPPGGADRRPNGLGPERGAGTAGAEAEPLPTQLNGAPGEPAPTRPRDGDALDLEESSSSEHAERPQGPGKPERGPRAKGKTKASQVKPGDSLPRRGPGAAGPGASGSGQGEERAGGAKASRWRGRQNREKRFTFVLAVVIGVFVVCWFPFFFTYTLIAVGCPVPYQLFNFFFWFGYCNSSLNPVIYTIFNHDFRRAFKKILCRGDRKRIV
The experiment in a line: inhibition of tritiated idazoxan binding to α2D-adrenoceptors in vitro. On the set-up: species or system rat (male Charles River CD, frontal cortical tissue). Particulars: rat frontal cortex; for Ki: [3H]idazoxan 1 nM, 0° C., 75 min; for inhibition at 1 µM: 10^-6 M, [3H]idazoxan, read-out: % displacement at 10^-6 M, α2D.

Another assay deals with T2, α2A-adrenoceptors (Homo sapiens, UniProt P08913).
T2 construct: Human cerebral cortex obtained at post-mortem; from tissue; host or cells: human cerebral cortex, post-mortem
T2 sequence (P08913 1-465): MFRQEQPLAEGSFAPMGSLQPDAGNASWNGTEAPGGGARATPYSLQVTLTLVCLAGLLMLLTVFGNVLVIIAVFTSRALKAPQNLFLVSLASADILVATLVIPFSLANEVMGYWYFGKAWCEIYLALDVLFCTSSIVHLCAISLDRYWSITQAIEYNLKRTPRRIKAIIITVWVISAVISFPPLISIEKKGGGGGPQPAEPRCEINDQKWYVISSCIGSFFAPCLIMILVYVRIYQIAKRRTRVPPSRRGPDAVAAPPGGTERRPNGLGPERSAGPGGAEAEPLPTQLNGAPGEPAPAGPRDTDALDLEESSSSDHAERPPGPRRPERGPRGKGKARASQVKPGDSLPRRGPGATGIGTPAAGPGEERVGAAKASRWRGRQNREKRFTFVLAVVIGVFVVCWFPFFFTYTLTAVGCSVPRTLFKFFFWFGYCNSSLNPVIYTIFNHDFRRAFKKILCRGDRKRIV
The experiment in a line: inhibition of tritiated RX 821002 binding to α2A-adrenoceptors in vitro. On the set-up: species or system human (cerebral cortex post-mortem). Particulars: 10^-6 M, human cerebral cortex, [3H]RX 821002; read-out: % displacement at 10^-6 M, α2A. How it is done: Human cerebral cortex obtained at post-mortem was homogenised in ice-cold 0.25M sucrose (1:30 w/v) and centrifuged at 1,000 g at 4° C. for 12 minutes. The supernatant was stored on ice and the pellet was rehomogenised in 0.25M sucrose (1:15 w/v) and centrifuged at 850 g at 4° C. for 12 minutes. Combined supernatants were diluted with 5 mM Tris-HCl (pH 7.5) containing 5 mM ethylenediamine tetraacetic acid (EDTA), readjusted to pH 7.5 (at 25° C.) with 1M sodium hydroxide to 1:80 w/v, and centrifuged at 11,000 g at 4° C. for 10 minutes. The resulting pellet was resuspended in 50 mM Tris-HCl (pH 7.5) containing 5.68 mM L-ascorbic acid and 0.5 mM EDTA, readjusted to pH 7.5 (at 25° C.) with 1M sodium hydroxide to 1:80 w/v, and centrifuged at 11,000 g for 10 minutes. The pellet was stored at -80° C. On the day of the assay the pellet was thawed, resuspended in 50 mM Tris-HCl (pH 7.5) containing 5.68 mM L-ascorbic acid and 5 mM EDTA to 1:80 w/v and centrifuged at 11,000 g for 10 minutes. The final pellet was resuspended in 50 mM Tris-HCl (pH 7.5) containing 5.68 mM L-ascorbic acid and 5 mM EDTA (equivalent to 25 mg wet weight of tissue/ml).
Aliquots (400 μl; equivalent to 10 mg wet weight of tissue/tube) of this suspension were added to tubes containing the ligand (50 μl; 0.2 nM) and distilled water (50 μl; total binding) or phentolamine (50 μl; 50 μM; non-specific binding) or test compound (50 μl; at a single concentration of 10^-6 M or at 10 concentrations ranging from 10^-11 -10^-3 M). The ligand was tritiated RX 821002 (2-(2-methoxy-1,4-[6,7(n)-^3 H]benzodioxan-2-yl)-2-imidazoline) and the mixture was incubated at 0° C. for 75 minutes before the incubation was terminated by rapid filtration.
The filters were washed with ice-cold Tris-HCl buffer and dried. The filters were punched out into vials, scintillation fluid added and radioactivity determined by liquid scintillation counting. The percentage displacement of specific binding of the tritiated ligand was calculated for the single concentration (10^-6 M) of test compound. Displacement curves were then produced for those compounds which displaced ≥50% of specific binding of the tritiated ligand at 10^-6 M using a range of concentrations of the compound. The concentration which gave 50% inhibition of specific binding (IC50) was obtained from the curve. The inhibition coefficient Ki was then calculated using the formula [formula] in which [ligand] is the concentration of the tritiated ligand used and KD is the equilibrium dissociation constant for the ligand.

Another assay has as its target α1-adrenoceptors. The experiment in a line: inhibition of 7-methoxy-[3H]prazosin binding to α1-adrenoceptors in vitro. Further details: species or system rat (male Charles River CD, whole cortical tissue). Particulars: rat whole cortex, 30 min; for Ki: 7-methoxy-[3H]prazosin 0.1 nM, 30° C. Put shortly:
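Male CD rat cortical membranes in 50 mM Tris-HCl pH 7.6 were incubated 30 min at 30 °C with 7-methoxy-[3H]prazosin (0.1 nM as added), with 5 μM phentolamine (as added) defining non-specific binding, then filtered and counted. Compounds were tested at 10^-6 M for % displacement or at 10^-11–10^-3 M for IC50, and Ki was derived from IC50, ligand concentration and KD.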

The target of the next assay is D2 dopamine receptors (Rattus norvegicus, UniProt P61169). As to the kind of experiment: inhibition of tritiated (S)-sulpiride binding to D2 dopamine receptors in vitro. Further details: species or system rat (male Charles River CD, striatal tissue). As to conditions: rat striatum, tritiated (S)-sulpiride 1 nM, 4° C., 40 min.
For another assay, the target named is T3, 5-HT1A receptors (Rattus norvegicus, UniProt P19327).
T3 sequence (P19327 1-422): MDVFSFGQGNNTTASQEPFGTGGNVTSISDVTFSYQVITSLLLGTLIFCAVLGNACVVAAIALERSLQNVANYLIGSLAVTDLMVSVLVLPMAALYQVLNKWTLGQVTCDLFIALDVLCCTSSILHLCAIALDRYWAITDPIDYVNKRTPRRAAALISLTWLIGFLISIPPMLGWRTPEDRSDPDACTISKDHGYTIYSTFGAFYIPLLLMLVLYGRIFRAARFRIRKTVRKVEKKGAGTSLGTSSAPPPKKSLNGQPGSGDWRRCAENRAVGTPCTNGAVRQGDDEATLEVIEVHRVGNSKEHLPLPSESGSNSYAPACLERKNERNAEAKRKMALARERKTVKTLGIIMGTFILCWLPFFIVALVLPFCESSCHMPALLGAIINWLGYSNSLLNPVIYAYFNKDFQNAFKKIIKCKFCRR
As to the kind of experiment: inhibition of [3H]8-OH-DPAT binding to 5-HT1A receptors in vitro. Further details: species or system rat (male Sprague-Dawley, hippocampal tissue). As to conditions: rat hippocampus; for Ki: [3H]8-OH-DPAT 2 nM, 25° C., 30 min.

Chain of D2 dopamine receptors (P61169 whole entry): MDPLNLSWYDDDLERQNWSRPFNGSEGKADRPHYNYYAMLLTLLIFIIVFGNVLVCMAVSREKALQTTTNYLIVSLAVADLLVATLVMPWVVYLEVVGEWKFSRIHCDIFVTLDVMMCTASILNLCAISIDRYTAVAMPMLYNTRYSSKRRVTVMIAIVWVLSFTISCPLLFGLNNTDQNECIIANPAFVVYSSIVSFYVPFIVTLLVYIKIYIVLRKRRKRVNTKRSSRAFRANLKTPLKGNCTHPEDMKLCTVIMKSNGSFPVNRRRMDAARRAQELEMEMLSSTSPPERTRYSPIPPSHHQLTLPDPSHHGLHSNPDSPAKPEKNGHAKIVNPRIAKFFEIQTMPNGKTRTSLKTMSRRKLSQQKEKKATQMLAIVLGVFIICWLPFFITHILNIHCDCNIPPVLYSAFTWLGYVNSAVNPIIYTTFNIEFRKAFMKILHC
Procedure for 5-HT1A receptors: Hippocampal tissue from the brains of male Sprague-Dawley rats (Charles River; weight range 150-250 g) was homogenised in ice-cold 50 mM Tris-HCl buffer (pH 7.7 when measured at 25° C., 1:40 w/v) and centrifuged at 30,000 g at 4° C. for 10 minutes. The pellet was rehomogenised in the same buffer, incubated at 37° C. for 10 minutes and centrifuged at 30,000 g at 4° C. for 10 minutes. The final pellet was resuspended in 50 mM Tris-HCl buffer (pH 7.7) containing 4 mM CaCl2. 0.1% L-ascorbic acid and 10 μM pargyline hydrochloride (equivalent to 6.25 mg wet weight of tissue/ml) and used immediately in the binding assay. Aliquots (400 μl; equivalent to 2.5 mg wet weight of tissue/tube) of this suspension were added to tubes containing the ligand (50 μl; 2 nM) and distilled water (50 μl; total binding) or 5-HT (50 μl; 10 μM; non-specific binding) or test compound (50 μl; at a single concentration of 10^-6 M or at 10 concentrations ranging from 10^-11 -10^-3 M). The ligand was [^3 H]8-hydroxy-2-(dipropylamino)tetralin ([^3 H]8-OH-DPAT) and the mixture was incubated at 25° C. for 30 minutes before the incubation was terminated by rapid filtration.

`CCCn1c(N)c(CN2CCN(c3cccc4c3OCCO4)CC2)c(=O)n1-c1ccccc1` [Example 5, 3-Amino-4-[4-(1,4-benzodioxan-5-yl)piperazin-1-ylmethyl]-1-phenyl-2-propyl-3-pyrazolin-5-one]: the inhibition constant (Ki) at α2D-adrenoceptors came out at 121 nM; on α1-adrenoceptors it was 41 nM; at D2 dopamine receptors it was 176 nM; on 5-HT1A receptors, 16 nM. The inhibition at 1 µM on α2A-adrenoceptors was 73%.
As for `Nc1c(CN2CCN(c3cccc4c3OCCO4)CC2)c(C2CC2)nn1-c1ccncc1` [Example 34, 5-Amino-4-[4-(1,4-benzodioxan-5-yl)piperazin-1-ylmethyl]-3-cyclopropyl-1-(4-pyridyl)pyrazole], the inhibition at 1 µM at α2D-adrenoceptors is 87%; at α2A-adrenoceptors, 96%. Besides, the values for the inhibition constant Ki on α1-adrenoceptors, on D2 dopamine receptors and on 5-HT1A receptors were 102 nM, 88 nM and 118 nM, respectively.
Take `Nc1nn(-c2ccccc2)c(N)c1CN1CCN(c2cccc3c2OCCO3)CC1` [Example 11, 3,5-diamino-4-[4-(1,4-benzodioxan-5-yl)piperazin-1-ylmethyl]-1-phenylpyrazole]: the Ki is 60 nM on α2D-adrenoceptors, over 500 nM at α1-adrenoceptors, 309 nM at D2 dopamine receptors and 16 nM at 5-HT1A receptors. At α2A-adrenoceptors, the inhibition at 1 µM worked out at 85%.
As to `Cc1ccccc1N1CCN(CC2(C)N=C(c3ccccc3)NC2=O)CC1` (stereo not drawn) [Example 43, 4-Methyl-4-[4-(2-methylphenyl)piperazin-1-ylmethyl]-2-phenyl-2-imidazolin-5-one], the inhibition constant Ki on α2D-adrenoceptors was 33 nM; on α1-adrenoceptors, over 500 nM; at D2 dopamine receptors, over 500 nM; on 5-HT1A receptors, 276 nM. Also, the inhibition at 1 µM at α2A-adrenoceptors was 93%.
Take `N#Cc1ccc(-n2nc(C3CC3)c(CN3CCN(c4cccc5c4OCCO5)CC3)c2N)cc1` [Example 32, 4-{5-Amino-4-[4-(1,4-benzodioxan-5-yl)piperazin-1-ylmethyl]-3-cyclopropylpyrazol-1-yl}benzonitrile]: the figures for the inhibition at 1 µM on α2D-adrenoceptors and on α2A-adrenoceptors were 92% and 91%, respectively. In addition, the Ki on α1-adrenoceptors turned out to be 44 nM; on D2 dopamine receptors, 320 nM; on 5-HT1A receptors, 129 nM.
As for `CC1(CN2CCN(c3cccc(Cl)c3)CC2)N=C(c2ccccc2)NC1=O` (stereo not drawn) [Example 42, 4-[4-(3-Chlorophenyl)piperazin-1-ylmethyl]-4-methyl-2-phenyl-2-imidazolin-5-one], the Ki on α2D-adrenoceptors was 226 nM; on α1-adrenoceptors, over 500 nM; on D2 dopamine receptors, over 500 nM; on 5-HT1A receptors it was 213 nM. In addition, at α2A-adrenoceptors, the inhibition at 1 µM is 84%.
`Cc1ccccc1N1CCN(Cc2c(C3CC3)nn(-c3ccccc3)c2N)CC1` [Example 19, 5-Amino-3-cyclopropyl-4-[4-(2-methylphenyl)piperazin-1-ylmethyl]-1-phenylpyrazole]: the Ki at α2D-adrenoceptors is 4.9 nM; at α1-adrenoceptors it was 38 nM; on D2 dopamine receptors it was over 500 nM; on 5-HT1A receptors it was 256 nM. The inhibition at 1 µM on α2A-adrenoceptors is 100%.
Take `CC(C)Oc1ccccc1N1CCN(Cc2c(N)n(C)n(-c3ccccc3)c2=O)CC1` [Example 8, 3-Amino-4-[4-(2-isopropoxyphenyl)piperazin-1-ylmethyl]-2-methyl-1-phenyl-3-pyrazolin-5-one]: the Ki at α2D-adrenoceptors was 21 nM; at α1-adrenoceptors, 12 nM; on D2 dopamine receptors, 22 nM; on 5-HT1A receptors, 106 nM. The inhibition at 1 µM at α2A-adrenoceptors is 100%.
For `Nc1c(CN2CCN(c3cccc4c3OCCO4)CC2)c(C2CC2)nn1-c1ccc(Cl)cc1` [Example 20, 5-Amino-4-[4-(1,4-benzodioxan-5-yl)piperazin-1-ylmethyl]-1-(4-chlorophenyl)-3-cyclopropylpyrazole], in that order: 15 nM, 19 nM, 445 nM, 61 nM and 89%.
`Nc1c(CN2CCN(c3cccc4c3OCCO4)CC2)c(-c2ccccc2)nn1-c1ccccc1` [Example 12, 5-Amino-4-[4-(1,4-benzodioxan-5-yl)piperazin-1-ylmethyl]-1,3-diphenylpyrazole]: the inhibitory constant (Ki) at α2D-adrenoceptors is 192 nM; at α1-adrenoceptors, 41 nM; on D2 dopamine receptors, over 500 nM; on 5-HT1A receptors it was 19 nM. Also, the inhibition at 1 µM at α2A-adrenoceptors was 99%.
Take `Nc1c(CN2CCN(c3cccc(Cl)c3)CC2)c(C2CC2)nn1-c1ccccc1` [Example 14, 5-Amino-4-[4-(3-chlorophenyl)piperazin-1-ylmethyl]-3-cyclopropyl-1-phenylpyrazole]: the inhibition at 1 µM at α2D-adrenoceptors turned out to be 81%; at α2A-adrenoceptors, 99%; on 5-HT1A receptors (10^-6 M, [3H]8-OH-DPAT, read-out: % displacement at 10^-6 M, 5-HT1A), 74%. For the same compound, in the assay on α1-adrenoceptors (10^-6 M, 7-methoxy-[3H]prazosin, 1 µM), the “% displacement at 10^-6 M, α1” value was 80%. At D2 dopamine receptors, this compound registered a Ki of over 500 nM.
With `CC1(CN2CCN(c3cccc4c3OCCO4)CC2)N=C(c2cccnc2)NC1=O` (stereo not drawn) [Example 40, 4-[4-(1,4-Benzodioxan-5-yl)piperazin-1-ylmethyl]-4-methyl-2-(3-pyridyl)-2-imidazolin-5-one], the inhibition constant (Ki) was 220 nM at α2D-adrenoceptors, over 500 nM at α1-adrenoceptors, 315 nM at D2 dopamine receptors and 19 nM on 5-HT1A receptors. In addition, on α2A-adrenoceptors, the inhibition at 1 µM came out at 69%.
